Experimental data taken from patent US10370409B2, “Synthesis of libraries of peptide tertiary amides” (The Scripps Research Institute, priority 2011, dated 2019).
Read-outs that look alike come from different tables or passages of the source. Numbered stars: 1 amine (or outer) side, 2 acyl side, 3 side chain; on linkers, the order of the positions; unused ones are H or OH. Square brackets hold non-standard residues; d marks the D form. Peptide text beside a SMILES is read from it. X1 = COc1ccc(CN([C@@H](C)C(=O)[*:2])[*:1])cc1OC; Gly(Nα-4-F-phenethyl) = O=C(O)CNCCc1ccc(F)cc1; X3 = COc1ccc(CN(CC(=O)[*:2])[*:1])cc1OC; X2 = C[C@@H](C(=O)[*:2])N(CCCCN)[*:1]; Gly(N-propargyl) = C#CCNCC(=O)O; NFurfurylGly = O=C(O)CNCc1ccco1; Nlys = NCCCCNCC(=O)O

Key:
scFv PX4-4 = assay: Fluorescence polarization / anisotropy titration of fluorescein-labelled compounds with PX4-4; type: binding, human; details: for Kd: FP titration with PX4-4
Experimental: Hits identification: All 17 hits were cleaved using CNBr and then characterized by MALDI mass spectrum. All 17 structures were resynthesized and examined against PX4-4 with FP assay. Only one hit was identified as binder with a Kd <10 μM.
(§1) The affinity of compound 13 for PX4-4 was determined by fluorescence anisotropy.
96 beads were chosen randomly from the library and placed individually into the wells of a 96-well filter plate. Each well was treated with fluorescein azide and a copper catalyst to attach fluorescein to the alkyne handle and then the compounds were cleaved from beads. The beads were filtered out and the soluble compounds were used for the fluorescence polarization (FP) assay. All 27 possible structures were found in this collection of molecules by tandem MS sequencing. Semi-quantitative binding constants for the PX4-4 antibody all 27 of the compounds were determined by titrating the compounds with the protein in the microwell format and monitoring the increase in FP. […] Most of the curves approached saturation, allowing for an accurate determination of the KD. In contrast, compound A41, corresponding to peptoid 14), was not saturated in the tested protein concentration range (100 nM to 400 μM) (FIG. 9B).

whole human IgG = assay: Fluorescence polarization selectivity test with a mixture of human IgG; type: binding; details: FP experiment repeated using a mixture of human IgG; FIG. 9B
Experimental: as §1
To address the selectivity of compounds A14 (N,R,S configuration), A7 (N,S,S), A68 (R,S,R), A41(N,N,N) and A24 (R,R,R) for PX4-4, the FP experiment was repeated using a mixture of human IgG as we did previously for compound 13. […] This implies that greater conformational flexibility is associated with binding promiscuity.

[1] = re-synthesized and purified compounds, read-out: Kd-re
[2] = semi-quantitative, compounds cleaved from single beads, 96-well microwell format, read-out: Kd-96

[2H]C([2H])([2H])[C@]([2H])(C(=O)N(CCc1ccc(F)cc1)CC(=O)N(CCCCN)CC(=O)N(CC#C)CC(=O)N(CCCCN)CC(=O)N(CC(N)=O)Cc1ccco1)N(CCCCN)C(=O)[C@H](C)NCc1ccc(OC)c(OC)c1 [A14]
Kd (scFv PX4-4; [1]): 19.1 µM | Kd (scFv PX4-4; [2]): 27.5 µM | binding with whole human IgG (whole human IgG): no binding

C#CCN(CC(=O)N(CCCCN)CC(=O)N(CC(N)=O)Cc1ccco1)C(=O)CN(CCCCN)C(=O)CN(CCc1ccc(F)cc1)C(=O)CN(CCCCN)C(=O)CNCc1ccc(OC)c(OC)c1 [A41] (H-[X3][Nlys][Gly(Nα-4-F-phenethyl)][Nlys][Gly(N-propargyl)][Nlys][NFurfurylGly]-NH2)
saturation of FP binding curve with PX4-4 (scFv PX4-4; protein concentration range 100 nM to 400 μM, FIG. 9B): not saturated | Kd (scFv PX4-4; [2]): 113 µM

[2H]C([2H])([2H])[C@@]([2H])(NCc1ccc(OC)c(OC)c1)C(=O)N(CCCCN)[C@@H](C)C(=O)N(CCc1ccc(F)cc1)[C@@]([2H])(C(=O)N(CCCCN)CC(=O)N(CC#C)CC(=O)N(CCCCN)CC(=O)N(CC(N)=O)Cc1ccco1)C([2H])([2H])[2H] [A68]
Kd (scFv PX4-4; [1]): 65.2 µM | Kd (scFv PX4-4; [2]): 43.2 µM | binding with whole human IgG (whole human IgG): no binding

C#CCN(CC(=O)N(CCCCN)CC(=O)N(CC(N)=O)Cc1ccco1)C(=O)CN(CCCCN)C(=O)CN(CCc1ccc(F)cc1)C(=O)[C@H](C)N(CCCCN)C(=O)[C@H](C)NCc1ccc(OC)c(OC)c1 [A7] (H-[X1][X2][Gly(Nα-4-F-phenethyl)][Nlys][Gly(N-propargyl)][Nlys][NFurfurylGly]-NH2)
Kd (scFv PX4-4; [1]): 25.4 µM | Kd (scFv PX4-4; [2]): 40.9 µM | binding with whole human IgG (whole human IgG): no binding

[2H]C([2H])([2H])[C@@]([2H])(NCc1ccc(OC)c(OC)c1)C(=O)N(CCCCN)[C@@]([2H])(C(=O)N(CCc1ccc(F)cc1)[C@@]([2H])(C(=O)N(CCCCN)CC(=O)N(CC#C)CC(=O)N(CCCCN)CC(=O)N(CC(N)=O)Cc1ccco1)C([2H])([2H])[2H])C([2H])([2H])[2H] [A24]
Kd (scFv PX4-4; [1]): 233 µM | Kd (scFv PX4-4; [2]): 117 µM | binding with whole human IgG (whole human IgG): no binding
